Test results published in US5239083A, “Indole derivatives which inhibit steroid 5α reductase” (Kyowa Hakko Kogyo Co., Ltd., priority 1991, dated 1993).

Columns and labels:
steroid 5α-reductase = assay: Inhibition effects on steroid 5α-reductase activity (rat prostate enzyme, [4-14C]-testosterone); type: biochemical, male rats; details: pH 6.5, 37° C., 20 minutes
Procedure: The measurements of inhibition effects of test compounds on steroid 5α-reductase activity were performed according to the method described by Liang et al. [J. Biol. Chem., 259, 734 (1984)] as follows.
The prostates from male rats were homogenated in three tissue volumes of 20 mM sodium phosphate buffer (pH 6.5; containing 0.32M sucrose and 1 mM dithiothreitol). The homogenate was centrifuged at 140,000 X g for one hour. The precipitate was suspended in the buffer described above and the suspension was centrifuged at 140,000 X g for one hour. The precipitate was resuspended in the buffer described above and the solution (30-50 mg protein/ml) was used as enzyme in following assay.
[4-^14 C]-testosterone (1.5 nmol), NADPH (75 nmol), the enzyme (1 mg protein) and test compound in a total volume of 0.5 ml of 40 mM sodium phosphate buffer [pH 6.5, containing 1 mM dithiothreitol] was incubated at 37° C. After 20 minutes the enzyme activity was stopped by the addition of 2 ml of ethyl acetate. The mixture was then centrifuged at 1,000 g, for 5 minutes. The ethyl acetate layer was transferred to another tube and evaporated to dryness. The steroids were taken up in 50 μl of ethyl acetate and separated by thin layer chromatography (TLC) on silica gel in a developing solvent (ethyl acetate: cyclohexane=1:1). The radioactivity of testosterone and dihydrotestosterone on the TLC plate was measured by a TLC scanner.

male dd mice = assay: Acute Toxicity Test (oral, mice); type: in vivo; details: oral 300 mg/kg, mortality observed seven days after administration
Procedure: Test compounds (300 mg/kg) were orally administered to male dd mice weighing 20±1 g (each group consists of three animals). Minimum lethal dose (MLD) was determined by observing mortality seven days after the administration.

| inhibition rate (%), 10^-7 M (steroid 5α-reductase) [%] | Compound | Acute toxicity (MLD), minimum lethal dose (male dd mice) [mg/kg] |
| --- | --- | --- |
| 97 | C/C(=C\C(=O)Nc1ccccc1OCCCC(=O)O)c1ccc2c(ccn2C(CC(C)C)c2ccccc2)c1 (stereo not drawn) [Compound 77, 4-{2-[3-[1-[α-(2-methyl)-propylbenzyl]indol-5-yl]isocrotonoylamino]phenoxy}butyric acid] | – |
| 79 | CCCCC(CCC)n1ccc2cc(/C(=C/C(=O)Nc3ccccc3OCCCC(=O)O)CC)ccc21 (stereo not drawn) [Compound 90, 4-{2-[3-[1-(1-propylpentyl)indol-5-yl]-cis-2-pentenoylamino]phenoxy}butyricacid] | – |
| 94 | 4-{2-[3-[1-(1-propylbutyl)indol-5-yl]isocrotonoyl amino]phenoxy}butyric acid [Compound 19] | – |
| 94 | CCCC(c1ccccc1C)n1ccc2cc(/C(C)=C/C(=O)Nc3ccccc3OCCCC(=O)O)ccc21 (stereo not drawn) [Compound 78, 4-{2-[3-[1-(2-methyl-α-propylbenzyl)indol-5-yl]isocrotonoylamino]phenoxy}butyric acid] | – |
| 78 | C/C(=C\C(=O)Nc1ccccc1OCCCC(=O)O)c1ccc2c(ccn2C(C)c2ccccc2)c1 (stereo not drawn) [Compound 38, 4-{2-[3-[1-(α-methylbenzyl)indol-5-yl]isocrotonoylamino]phenoxy}butyric acid] | – |
| 93 | C/C(=C\C(=O)Nc1ccc(F)cc1OCCCC(=O)O)c1ccc2c(ccn2C(c2ccccc2)c2ccccc2)c1 [Compound 48, 4-{2-[3-(1-benzhydrylindol-5-yl)isocrotonoylamino]-5-fluorophenoxy}butyric acid] | – |
| 97 | CC/C(=C\C(=O)Nc1ccccc1OCCCC(=O)O)c1ccc2c(ccn2C(c2ccc(F)cc2)c2ccc(F)cc2)c1 [Compound 94, 4-{2-[3-[1-(4,4'-difluorobenzhydryl)indol-5-yl]-cis-2-pentenoylaminmo]phenoxy}butyric acid] | – |
| 92 | C/C(=C\C(=O)Nc1ccccc1OCCCC(=O)O)c1ccc2c(ccn2C(c2ccccc2)c2ccc(F)cc2)c1 (stereo not shown) [Compound 57, 4-{2-[3-[1-(4-fluorobenzhydryl)indol-5-yl]isocrotonoylamino]phenoxy}butyricacid] | – |
| 66 | C/C(=C\C(=O)Nc1ccccc1OCCCC(=O)O)c1ccc2c(ccn2C(c2ccccc2)c2cccnc2)c1 (stereo not shown) [Compound 84] | – |
| 90 | C/C(=C\C(=O)Nc1ccccc1OCCCC(=O)O)c1ccc2c(ccn2C(c2ccccc2)c2ccc(C(F)(F)F)cc2)c1 (stereo not shown) [Compound 83] | – |
| – | CCC(C)n1ccc2cc(/C(C)=C/C(=O)Nc3ccccc3OCCCC(=O)O)ccc21 (stereo not shown) [Compound 15, 4-{2-[3-[1-(1-methylpropyl)indol-5-yl]isocrotonoylamino]phenoxy}butyric acid] | > 300 |
| 93 | C/C(=C\C(=O)Nc1ccccc1OCCCC(=O)O)c1ccc2c(ccn2C(c2ccccc2)c2ccccc2F)c1 (stereo not shown) [Compound 58, 4-{2-[3-[1-(2-fluorobenzhydryl)indol-5-yl]isocrotonoylamino]phenoxy}butyricacid] | – |
| 95 | CCCC(CCC)n1ccc2cc(/C(=C/C(=O)Nc3ccccc3OCCCC(=O)O)CC)ccc21 [Compound 88, 4-{2-[3-[1-(1-propylbutyl)indol-5-yl]-cis-2-pentenoylamino]phenoxy}butyric acid] | – |
| 98 | CCCCC(CCC)n1ccc2cc(/C(=C/C(=O)Nc3ccc(F)cc3OCCCC(=O)O)CC)ccc21 (stereo not drawn) [Compound 91, 4-{2-[3-[1-(1-propylpentyl)indol-5-yl]-cis-2-pentenoylamino]-5-fluorophenoxy}butyric acid] | – |
| 98 | CCCC(CCC)n1ccc2cc(/C(C)=C/C(=O)Nc3ccc(F)cc3OCCCC(=O)O)ccc21 [Compound 67] | – |
| 72 | C/C(=C\C(=O)Nc1ccccc1OCCCC(=O)O)c1ccc2c(ccn2C(c2ccccc2)c2ccccn2)c1 (stereo not shown) [Compound 63, 4-{2-[3-[1-[phenyl-(2-pyridyl)methyl]indol-5-yl]isocrotonoylamino]phenoxy}butyric acid] | – |
| 92 | C/C(=C\C(=O)Nc1ccccc1OCCCC(=O)O)c1ccc2c(ccn2C(c2ccc(F)cc2)c2ccc(F)cc2)c1 [Compound 59, 4-{2-[3-[1-(4,4'-difluorobenzhydryl)indol-5-yl]isocrotonoylamino]phenoxy}butyric acid] | – |
| – | CCCCC(C)n1ccc2cc(/C(C)=C/C(=O)Nc3ccccc3OCCCC(=O)O)ccc21 (stereo not shown) [Compound 17, 4-{2-[3-[1-(1-methylpentyl)indol-5-yl]isocrotonoylamino]phenoxy}butyrate] | > 300 |
| 95 | CCCC(CCC)n1ccc2cc(/C(=C/C(=O)Nc3ccc(F)cc3OCCCC(=O)O)CC)ccc21 [Compound 89, 4-{2-[3-[1-(1-propylbutyl)indol-5-yl]-cis-2-pentenoylamino]-5-fluorophenoxy}butyric acid] | – |
| 92 | CCCC(CC)n1ccc2cc(/C(C)=C/C(=O)Nc3ccccc3OCCCC(=O)O)ccc21 (stereo not shown) [Compound 68, 4-{2-[3-[1-(1-ethylbutyl)indol-5-yl]isocrotonoylamino]phenoxy}butyric acid] | – |
| 90 | CCCCC(c1ccccc1C)n1ccc2cc(/C(C)=C/C(=O)Nc3ccccc3OCCCC(=O)O)ccc21 (stereo not drawn) [Compound 79, 4-{2-[3-[1-(α-butyl-2-methylbenzyl)indol-5-yl]isocrotonoylamino]phenoxy}butyric acid] | – |
| 91 | CC/C(=C\C(=O)Nc1ccccc1OCCCC(=O)O)c1ccc2c(ccn2C(CC(C)C)CC(C)C)c1 [Compound 92, 4-{2-[3-[1-[3-methyl-1-(2-methylpropyl)butyl]indol-5-yl]-cis-2-pentenoylamino]phenoxy}butyric acid] | – |
| 87 | COc1ccc(C(c2ccc(OC)cc2)n2ccc3cc(/C(C)=C/C(=O)Nc4ccccc4OCCCC(=O)O)ccc32)cc1 [Compound 60, 4-{2-[3-[1-(4,4-dimethoxybenzhydryl)indol-5-yl]isocrotonoylamino]phenoxy}butyric acid] | – |
| 94 | CC/C(=C\C(=O)Nc1ccccc1OCCCC(=O)O)c1ccc2c(ccn2C(c2ccccc2)c2ccccc2)c1 [Compound 93, 4-{2-[3-(1-benzhydrylindol-5-yl)-cis-2-pentenoylamino]phenoxy}butyric acid] | – |
| – | CCCCCCn1ccc2cc(/C(C)=C/C(=O)Nc3ccccc3OCCCC(=O)O)ccc21 [Compound 7, 4-{2-[3-(1-hexylindol-5-yl)isocrotonoylamino]phenoxy}butyric acid] | > 300 |
| 70 | C/C(=C\C(=O)Nc1ccccc1OCCCC(=O)O)c1ccc2c(ccn2C(C)CCCC(C)C)c1 (stereo not shown) [Compound 76, 4-{2-[3-[1-(1,5-dimethylhexyl)indol-5-6l]isocrotonoylamino]phenoxy}butyric acid] | – |
| 70 | CCCC(C)C(C)n1ccc2cc(/C(C)=C/C(=O)Nc3ccccc3OCCCC(=O)O)ccc21 (stereo not shown) [Compound 22, 4-{2-[3-[1-(1,2-dimethylpentyl)indol-5-yl]isocrotonoylamino]phenoxy}butyric acid] | – |
| 78 | CCC(c1ccccc1)n1ccc2cc(/C(C)=C/C(=O)Nc3ccccc3OCCCC(=O)O)ccc21 (stereo not drawn) [Compound 40, 4-{2-[3-[1-(α-ethylbenzyl)indol-5-yl]isocrotonoylamino]phenoxy}butyric acid] | – |

| Compound | inhibition rate (%), 10^-7 M (steroid 5α-reductase) [%] | Acute toxicity (MLD), minimum lethal dose (male dd mice) [mg/kg] |
| --- | --- | --- |
| CCCC(c1ccccc1)n1ccc2cc(/C(C)=C/C(=O)Nc3ccccc3OCCCC(=O)O)ccc21 (stereo not drawn) [Compound 41, 4-{2-[3-[1-(α-propylbenzyl)indol-5-yl]isocrotonoylamino]phenoxy}butyric acid] | 90 | > 300 |
| C/C(=C\C(=O)Nc1ccccc1OCCCC(=O)O)c1ccc2c(ccn2C(c2ccccc2)c2ccccc2)c1 [Compound 2, 4-{2-[3-(1-benzhydrylindol-5-yl)isocrotonoylamino]phenoxy}butyric acid] | 95 | > 300 |
| 4-{2-[3-[1-(1-butylpentyl)indol-5-yl]isocrotonoyl amino]phenoxy}butyric acid [Compound 20] | 79 | > 300 |
| C/C(=C\C(=O)Nc1ccccc1OCCCC(=O)O)c1ccc2c(ccn2C(c2ccc(C)cc2)c2ccc(C)cc2)c1 [Compound 54, 4-{2-[3-[1-(4,4'-dimethylbenzhydryl)indol-5-yl]isocrotonoylamino]phenoxy}butyric acid] | 89 | > 300 |
| CCCC(C)n1ccc2cc(/C(C)=C/C(=O)Nc3ccccc3OCCCC(=O)O)ccc21 (stereo not shown) [Compound 16, 4-{2-[3-[1-(1-methylbutyl)indol-5-yl]isocrotonoylamino]phenoxy}butyric acid] | 88 | > 300 |
| CCCCC(c1ccccc1)n1ccc2cc(/C(C)=C/C(=O)Nc3ccccc3OCCCC(=O)O)ccc21 (stereo not drawn) [Compound 42, 4-{2-[3-[1-(α-butylbenzyl)indol-5-yl]isocrotonoylamino]phenoxy}butyric acid] | 89 | > 300 |
